What was measured:
A2780 cells = test: In vitro A2780 cell cytotoxicity assay (MTT); format: cell-based; conditions: 6 days
Protocol: A2780 cells were seeded in triplicate at densities of 10^5 per well for cytotoxicity assays in 96-well flat-bottomed plates with the recommended culture medium. […] Cell viability was assessed using MTT assays as previously described.

BCRP = molecular target: T1, BCRP (Homo sapiens, UniProt Q9UNQ0); test: MDCKII-BCRP monolayer bidirectional transport assay; format: in vitro ADME; conditions: MDCKII-BCRP cells; for Papp A→B at 120 min, 1 μM / Papp B→A at 120 min, 1 μM / Papp A→B at 120 min, 10 μM / Papp B→A at 120 min, 10 μM / Papp A→B at 120 min, 100 μM / Papp B→A at 120 min, 100 μM: human
T1 construct: host or cells: MDCKII
T1 sequence (Q9UNQ0 1-655): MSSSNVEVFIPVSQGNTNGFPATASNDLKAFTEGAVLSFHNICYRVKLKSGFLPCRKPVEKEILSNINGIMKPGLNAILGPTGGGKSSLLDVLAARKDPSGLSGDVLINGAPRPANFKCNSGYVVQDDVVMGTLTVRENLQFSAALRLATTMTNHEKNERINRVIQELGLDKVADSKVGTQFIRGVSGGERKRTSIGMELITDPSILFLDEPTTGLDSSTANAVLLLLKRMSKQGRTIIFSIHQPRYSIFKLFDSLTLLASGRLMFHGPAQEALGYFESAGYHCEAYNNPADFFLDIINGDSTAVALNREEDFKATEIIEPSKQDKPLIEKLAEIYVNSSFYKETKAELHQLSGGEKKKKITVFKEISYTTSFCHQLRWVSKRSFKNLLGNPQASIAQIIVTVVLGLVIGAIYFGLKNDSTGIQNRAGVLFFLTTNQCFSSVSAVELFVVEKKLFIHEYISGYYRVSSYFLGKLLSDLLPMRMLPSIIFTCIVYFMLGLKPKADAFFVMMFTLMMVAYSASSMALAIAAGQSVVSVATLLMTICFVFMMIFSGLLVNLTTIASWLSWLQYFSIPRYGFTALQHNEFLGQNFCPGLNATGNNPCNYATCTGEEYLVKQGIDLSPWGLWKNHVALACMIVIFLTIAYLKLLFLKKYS
Protocol: The monolayer assays were performed using parental and BCRP or MDR1 transfected MDCKII cell monolayers. […] Transfected and parental MDCKII cells were cultured on the inserts with 100 μL medium per well on the apical side and 25 mL in a single-well receiver tray for all 24 wells on the basolateral side, for 96 hours. Medium was changed 24 hours before the experiment. Permeability incubations were carried out in Hank’s Buffered Salt Solution (HBSS) at 37 ± 1°C. […] LY samples (100 μL from basolateral wells) were analyzed by measuring fluorescence with the following wavelengths: excitation – 430 nm, emission – 520 nm. Trans-epithelial electric resistance (TEER) of each well was measured to confirm the confluency of the monolayers after the experiments. The assays were conducted according to the actual SOLVO MDCKII-BCRP and MDCKII-MDR1 monolayer assay protocols (SOP). […] Cells were pre-incubated in assay buffer for 10 minutes to allow cells adjusting to the medium. Assay buffer containing the test articles (separately) at three concentrations (1 μM, 10 μM and 100 μM) was then added to the appropriate apical (100 μL) or basolateral (600 μL) chamber. […] The prazosin or digoxin efflux ratio was determined as a positive control for BCRP or MDR1 function, respectively. […] Bidirectional transport of the test articles in control, MDCKII-BCRP and MDCKII-MDR1 cells was determined by LC-MS/MS.

Row | SMILES | cytotoxicity in cultured A2780 cells, niraparib versus olaparib (A2780 cells) | Net ER (BCRP; 1 μM) | Net ER (BCRP; 10 μM) | Net ER (BCRP; 100 μM) | Papp A→B at 120 min, 1 μM (BCRP; 1 μM) | Papp B→A at 120 min, 1 μM (BCRP; 1 μM) | Papp A→B at 120 min, 10 μM (BCRP; 10 μM) | Papp B→A at 120 min, 10 μM (BCRP; 10 μM) | Papp A→B at 120 min, 100 μM (BCRP; 100 μM) | Papp B→A at 120 min, 100 μM (BCRP; 100 μM)
1 | NC(=O)c1cccc2cn(-c3ccc([C@@H]4CCCNC4)cc3)nc12 [Niraparib, 2-{4-[(3S)-piperidin-3-yl]phenyl}-2H-indazole-7-carboxamide] | not statistically different | 8.86 ± 3.28 | 24.73 ± 6.47 | 9.58 ± 1.70 | 4.83 ± 2.29 ×10⁻⁶ cm/s | 52.1 ± 3.09 ×10⁻⁶ cm/s | 2.27 ± 0.7 ×10⁻⁶ cm/s | 59.6 ± 3.65 ×10⁻⁶ cm/s | 4.1 ± 0.13 ×10⁻⁶ cm/s | 43.1 ± 2.62 ×10⁻⁶ cm/s
2 | O=C(c1cc(Cc2n[nH]c(=O)c3ccccc23)ccc1F)N1CCN(C(=O)C2CC2)CC1 [Olaparib] | not statistically different | 32.97 ± 9.58 | 71.22 ± 14.97 | 50.54 ± 13.65 | 1.12 ± 1.04 ×10⁻⁶ cm/s | 41.4 ± 4.35 ×10⁻⁶ cm/s | 0.59 ± 0.33 ×10⁻⁶ cm/s | 44.1 ± 2.65 ×10⁻⁶ cm/s | 0.9 ± 0.22 ×10⁻⁶ cm/s | 46.8 ± 3.4 ×10⁻⁶ cm/s
